According to patent US20140155406A1, “4-IMIDAZOPYRIDAZIN-1-YL-BENZAMIDES AND 4-IMIDAZOTRIAZIN-1-YL-BENZAMIDES BTK INHIBITORS” (priority 2011, published 2014):

Columns and labels:
Assay type in all cases: biochemical
Lyn enzyme = target: T1, Lyn enzyme (Homo sapiens, UniProt P07948); assay: Lyn enzyme activity, IMAP fluorescence polarization assay; details: 60 min pre-incubation, 2 μM ATP (Km)
T1 construct: purchased Millipore 14-510
Protocol: Lyn enzyme activity is measured using the IMAP (immobilized metal ion affinity-based fluorescence polarization) assay as outlined below.
Lyn enzyme (Millipore catalog#14-510), is diluted to 250 mU/mL in KR buffer (10 mM Tris-HCl, 10 mM MgCl2, 0.01% Tween-20, 0.05% NaN3, 1 mM DTT, 2 mM MnCl2, pH 7.2). Serial dilution log 10 from 2 mM to 63.2 nM of test compounds are made in 100% DMSO. The dilutions in DMSO are then diluted 50-fold in KR-buffer of which 5 μl is used in the assay, leading to a final compound concentration range in the assay from 10 μM to 0.316 nM. 5 μL/well of test compound in KR buffer (final DMSO concentration in the assay is 1%) is mixed with 5 μl/well of 250 mU/mL Lyn enzyme (final concentration in the assay is 62.5 mU/mL). Test compounds and Lyn enzyme are pre-incubated 60 minutes at room temperature, before adding 5 μL/well of 400 nM Fluorescin labeled substrate peptide (Blk/Lyntide substrate, e.g. #R7188/#R7233, Molecular Devices) in KR-buffer. Final peptide substrate concentration in assay is 100 nM. The kinase assay is started by adding 5 μL/well of 8 μM ATP in KR-buffer (final ATP concentration is 2 μM ATP, Km ATP in Lyn IMAP assay). Following incubation for 2 h at room temperature the enzyme reaction is stopped by adding 40 μL/well IMAP Progressive Binding Solution (according to suppliers (Molecular Devices) protocol using 75% 1× buffer A and 25% 1× buffer B with 1:600 Progressive Binding Solution). After 60 min incubation at room temperature in the dark the FP signal is read. Fluorescence at 535 nm is measured using parallel and perpendicular filters to determine differences in rotation due to binding of the phosphorylated substrate peptide to the beads. Values are calculated as percentage of the difference in readout (ΔmPi) of the controls with and without ATP. EC50 values are determined by curve fitting of the experimental results using Activity Base.

Src enzyme = target: T2, Src enzyme (Homo sapiens, UniProt P12931); assay: Src enzyme activity, IMAP fluorescence polarization assay; details: 60 min pre-incubation, 4 μM ATP (Km)
T2 construct: purchased Millipore 14-326
T2 sequence (P12931 whole entry): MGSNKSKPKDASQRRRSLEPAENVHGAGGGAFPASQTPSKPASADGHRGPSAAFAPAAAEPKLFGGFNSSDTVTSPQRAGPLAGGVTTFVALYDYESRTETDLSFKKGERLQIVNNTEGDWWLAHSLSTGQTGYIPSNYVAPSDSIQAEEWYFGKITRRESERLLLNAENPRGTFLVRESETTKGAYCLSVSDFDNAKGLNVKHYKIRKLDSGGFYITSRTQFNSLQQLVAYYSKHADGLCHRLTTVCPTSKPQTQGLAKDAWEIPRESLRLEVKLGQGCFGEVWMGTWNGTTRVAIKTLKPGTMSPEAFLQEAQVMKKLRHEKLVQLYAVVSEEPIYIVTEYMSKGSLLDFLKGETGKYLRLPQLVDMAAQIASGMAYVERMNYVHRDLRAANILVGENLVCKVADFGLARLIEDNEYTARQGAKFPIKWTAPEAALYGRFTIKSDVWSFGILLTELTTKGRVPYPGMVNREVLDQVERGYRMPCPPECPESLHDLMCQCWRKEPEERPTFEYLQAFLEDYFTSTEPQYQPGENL
Protocol: Src enzyme activity is measured using the IMAP (immobilized metal ion affinity-based fluorescence polarization) assay as outlined below.
Src enzyme (Millipore catalog#14-326), is diluted to 0.8 U/mL in KR buffer (10 mM Tris-HCl, 10 mM MgCl2, 0.01% Tween-20, 0.05% NaN3, 1 mM DTT, 2 mM MnCl2, pH 7.2).
Serial dilution log 10 from 2 mM to 63.2 nM of test compounds are made in 100% DMSO. The dilutions in DMSO are then diluted 50-fold in KR-buffer of which 5 μl is used in the assay, leading to a final compound concentration range in the assay from 10 μM to 0.316 nM. 5 μL/well of test compound in KR buffer (final DMSO concentration in the assay is 1%) is mixed with 5 μl/well of 0.8 U/mL Src enzyme (final concentration in the assay is 0.2 U/mL). Test compounds and Src enzyme are pre-incubated 60 minutes at room temperature, before adding 5 μL/well of 400 nM Fluorescin labeled substrate peptide (p34cdc2 substrate peptide, e.g. #R7157/#R7172, Molecular Devices) in KR-buffer. Final peptide substrate concentration in assay is 100 nM. The kinase assay is started by adding 5 μL/well of 16 μM ATP in KR-buffer (final ATP concentration is 4 μM ATP, Km ATP in Src IMAP assay). Following incubation for 2 h at room temperature the enzyme reaction is stopped by adding 40 μL/well IMAP Progressive Binding Solution (according to suppliers (Molecular Devices) protocol using 75% 1× buffer A and 25% 1× buffer B with 1:600 Progressive Binding Solution). After 60 min incubation at room temperature in the dark the FP signal is read. Fluorescence at 535 nm is measured using parallel and perpendicular filters to determine differences in rotation due to binding of the phosphorylated substrate peptide to the beads. Values are calculated as percentage of the difference in readout (ΔmPi) of the controls with and without ATP. EC50 values are determined by curve fitting of the experimental results using Activity Base.

Lck enzyme = target: T3, Lck enzyme (Homo sapiens, UniProt P06239); assay: Lck enzyme activity, IMAP fluorescence polarization assay; details: 60 min pre-incubation, 6 μM ATP (Km)
T3 construct: purchased Millipore 14-442
T3 sequence (P06239 whole entry): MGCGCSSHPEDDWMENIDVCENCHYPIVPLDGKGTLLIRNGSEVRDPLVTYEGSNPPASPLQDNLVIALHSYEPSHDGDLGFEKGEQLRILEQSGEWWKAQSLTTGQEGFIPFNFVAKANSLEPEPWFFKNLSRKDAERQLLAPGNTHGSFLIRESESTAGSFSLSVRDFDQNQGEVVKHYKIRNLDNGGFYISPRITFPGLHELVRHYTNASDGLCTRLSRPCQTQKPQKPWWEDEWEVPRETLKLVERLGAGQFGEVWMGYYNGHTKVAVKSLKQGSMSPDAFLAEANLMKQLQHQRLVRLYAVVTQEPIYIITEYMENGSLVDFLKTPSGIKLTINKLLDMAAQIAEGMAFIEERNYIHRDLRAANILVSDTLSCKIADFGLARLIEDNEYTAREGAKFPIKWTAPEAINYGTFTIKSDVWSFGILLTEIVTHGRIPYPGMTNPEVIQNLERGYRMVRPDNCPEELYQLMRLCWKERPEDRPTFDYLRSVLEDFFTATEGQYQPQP
Protocol: Lck enzyme activity is measured using the IMAP (immobilized metal ion affinity-based fluorescence polarization) assay as outlined below.
Lck enzyme (Millipore catalog#14-442), is diluted to 0.4 U/mL in KR buffer (10 mM Tris-HCl, 10 mM MgCl2, 0.01% Tween-20, 0.05% NaN3, 1 mM DTT, 2 mM MnCl2, pH 7.2). Serial dilution log 10 from 2 mM to 63.2 nM of test compounds are made in 100% DMSO. The dilutions in DMSO are then diluted 50-fold in KR-buffer of which 5 μl is used in the assay, leading to a final compound concentration range in the assay from 10 μM to 0.316 nM. 5 μL/well of test compound in KR buffer (final DMSO concentration in the assay is 1%) is mixed with 5 μl/well of 0.4 U/mL Lck enzyme (final concentration in the assay is 0.1 U/mL). Test compounds and Lck enzyme are pre-incubated 60 minutes at room temperature, before adding 5 μL/well of 400 nM Fluorescin labeled substrate peptide (p34cdc2 substrate peptide, e.g. #R7157/#R7172, Molecular Devices) in KR-buffer. Final peptide substrate concentration in assay is 100 nM. The kinase assay is started by adding 5 μL/well of 24 μM ATP in KR-buffer (final ATP concentration is 6 μM ATP, Km ATP in Lck IMAP assay). Following incubation for 2 h at room temperature the enzyme reaction is stopped by adding 40 μL/well IMAP Progressive Binding Solution (according to suppliers (Molecular Devices) protocol using 75% 1× buffer A and 25% 1× buffer B with 1:600 Progressive Binding Solution). After 60 min incubation at room temperature in the dark the FP signal is read. Fluorescence at 535 nm is measured using parallel and perpendicular filters to determine differences in rotation due to binding of the phosphorylated substrate peptide to the beads. Values are calculated as percentage of the difference in readout (ΔmPi) of the controls with and without ATP. EC50 values are determined by curve fitting of the experimental results using Activity Base.

FynT enzyme = target: T4, FynT enzyme (Homo sapiens, UniProt P06241); assay: FynT enzyme activity, IMAP fluorescence polarization assay; details: 60 min pre-incubation, 0.2 μM ATP (Km)
T4 construct: purchased Biomol SE-287
T4 sequence (P06241 1-534 isoform P06241-2): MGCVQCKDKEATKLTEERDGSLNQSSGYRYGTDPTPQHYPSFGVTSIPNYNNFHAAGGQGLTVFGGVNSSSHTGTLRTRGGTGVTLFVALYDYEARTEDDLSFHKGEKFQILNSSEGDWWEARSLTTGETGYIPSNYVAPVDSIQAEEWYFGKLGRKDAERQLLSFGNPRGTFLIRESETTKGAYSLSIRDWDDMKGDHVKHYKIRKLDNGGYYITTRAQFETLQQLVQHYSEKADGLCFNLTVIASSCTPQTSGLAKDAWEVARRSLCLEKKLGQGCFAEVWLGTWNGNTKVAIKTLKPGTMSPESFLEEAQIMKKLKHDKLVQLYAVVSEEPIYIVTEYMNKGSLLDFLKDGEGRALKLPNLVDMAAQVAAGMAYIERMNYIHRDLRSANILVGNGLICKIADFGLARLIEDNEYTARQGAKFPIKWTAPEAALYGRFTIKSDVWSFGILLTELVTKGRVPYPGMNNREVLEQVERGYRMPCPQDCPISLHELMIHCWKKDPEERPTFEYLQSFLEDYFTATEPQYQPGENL
Protocol: FynT enzyme activity is measured using the IMAP (immobilized metal ion affinity-based fluorescence polarization) assay as outlined below.
FynT enzyme (Biomol catalog# SE-287), is diluted to 0.5 μg/mL in KR buffer (10 mM Tris-HCl, 10 mM MgCl2, 0.01% Tween-20, 0.05% NaN3, 1 mM DTT, 2 mM MnCl2, pH 7.2). Serial dilution log 10 from 2 mM to 63.2 nM of test compounds are made in 100% DMSO. The dilutions in DMSO are then diluted 50-fold in KR-buffer of which 5 μl is used in the assay, leading to a final compound concentration range in the assay from 10 μM to 0.316 nM. 5 μL/well of test compound in KR buffer (final DMSO concentration in the assay is 1%) is mixed with 5 μl/well of 0.5 μg/mL FynT enzyme (final concentration in the assay is 125 ng/mL). Test compounds and FynT enzyme are pre-incubated 60 minutes at room temperature, before adding 5 μL/well of 400 nM Fluorescin labeled substrate peptide (p34cdc2 substrate peptide, e.g. #R7157/#R7172, Molecular Devices) in KR-buffer. Final peptide substrate concentration in assay is 100 nM. The kinase assay is started by adding 5 μL/well of 0.8 μM ATP in KR-buffer (final ATP concentration is 0.2 μM ATP, Km ATP in FynT IMAP assay). Following incubation for 2 h at room temperature the enzyme reaction is stopped by adding 40 μL/well IMAP Progressive Binding Solution (according to suppliers (Molecular Devices) protocol using 75% 1× buffer A and 25% 1× buffer B with 1:600 Progressive Binding Solution). After 60 min incubation at room temperature in the dark the FP signal is read. Fluorescence at 535 nm is measured using parallel and perpendicular filters to determine differences in rotation due to binding of the phosphorylated substrate peptide to the beads. Values are calculated as percentage of the difference in readout (ΔmPi) of the controls with and without ATP. EC50 values are determined by curve fitting of the experimental results using Activity Base.

Measured: EC50

T1 sequence (P07948 whole entry): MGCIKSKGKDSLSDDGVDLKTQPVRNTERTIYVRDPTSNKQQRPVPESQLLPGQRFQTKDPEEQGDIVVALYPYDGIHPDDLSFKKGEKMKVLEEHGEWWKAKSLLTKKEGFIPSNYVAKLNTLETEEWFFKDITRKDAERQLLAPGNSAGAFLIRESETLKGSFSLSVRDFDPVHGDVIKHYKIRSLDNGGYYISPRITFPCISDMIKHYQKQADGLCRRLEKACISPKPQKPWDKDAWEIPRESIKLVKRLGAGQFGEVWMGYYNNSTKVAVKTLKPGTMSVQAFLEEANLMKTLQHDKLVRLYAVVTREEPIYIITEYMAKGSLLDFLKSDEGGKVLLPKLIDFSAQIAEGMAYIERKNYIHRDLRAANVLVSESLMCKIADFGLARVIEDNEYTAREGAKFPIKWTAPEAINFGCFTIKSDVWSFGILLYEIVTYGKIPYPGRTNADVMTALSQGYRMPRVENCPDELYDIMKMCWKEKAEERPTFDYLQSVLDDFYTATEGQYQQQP

CC#CC(=O)N1CCC[C@H]1c1nc(-c2ccc(C(=O)Nc3ccccn3)cc2)c2c(C)nccn12 [Example 1, (S)-4-(3-(1-But-2-ynoylpyrrolidin-2-yl)-8-methylimidazo[1,5-a]pyrazin-1-yl)-N-(pyridin-2-yl)benzamide]
≥ 1000 nM: all assays above

CCCc1ccnc(NC(=O)c2ccc(-c3nc([C@@H]4CCCCN4C(=O)c4ccnc(Cl)n4)n4ccnc(C)c34)cc2)c1 [Example 5, (S)-4-(3-(1-(2-chloropyrimidine-4-carbonyl)piperidin-2-yl)-8-methylimidazo[1,5-a]pyrazin-1-yl)-N-(4-propylpyridin-2-yl)benzamide]
≥ 1000 nM: all assays above

C=CC(=O)N1CCC[C@H]1c1nc(-c2ccc(C(=O)Nc3cc(C)ccn3)cc2)c2c(C)nccn12 [Example 11, (S)-4-(3-(1-Acryloylpyrrolidin-2-yl)-8-methylimidazo[1,5-a]pyrazin-1-yl)-N-(4-methylpyridin-2-yl)benzamide]
≥ 1000 nM: all assays above

C=CC(=O)N1CCC[C@H]1c1nc(-c2ccc(C(=O)Nc3cc(OC)ccn3)cc2)c2c(C)nccn12 [Example 12, (S)-4-(3-(1-acryloylpyrrolidin-2-yl)-8-methylimidazo[1,5-a]pyrazin-1-yl)-N-(4-methoxypyridin-2-yl)benzamide]
≥ 1000 nM: all assays above

C=CC(=O)N1CCC[C@H]1c1nc(-c2ccc(C(=O)Nc3cc(CC)ccn3)cc2)c2c(C)nccn12 [Example 14, (S)-4-(3-(1-Acryloylpyrrolidin-2-yl)-8-methylimidazo[1,5-a]pyrazin-1-yl)-N-(4-ethylpyridin-2-yl)benzamide]
≥ 1000 nM: all assays above

CC#CC(=O)N1CCC[C@H]1c1nc(-c2ccc(C(=O)Nc3cc(OC)ccn3)cc2)c2c(C)nccn12 [Example 16, (S)-4-(3-(1-but-2-ynoylpyrrolidin-2-yl)-8-methylimidazo[1,5-a]pyrazin-1-yl)-N-(4-methoxypyridin-2-yl)benzamide]
≥ 1000 nM: all assays above

Cc1nccn2c([C@@H]3CCCCN3C(=O)c3ccnc(Cl)n3)nc(-c3ccc(C(=O)Nc4cc(C(F)(F)F)ccn4)cc3)c12 [Example 17, (S)-4-(3-(1-(2-chloropyrimidine-4-carbonyl)piperidin-2-yl)-8-methylimidazo[1,5-a]pyrazin-1-yl)-N-(4-(trifluoromethyl)pyridin-2-yl)benzamide]
≥ 1000 nM: all assays above

CC#CC(=O)N1CCC[C@H]1c1nc(-c2ccc(C(=O)Nc3cc(CC)ccn3)cc2)c2c(C)nccn12 [Example 20, (S)-4-(3-(1-but-2-ynoylpyrrolidin-2-yl)-8-methylimidazo[1,5-a]pyrazin-1-yl)-N-(4-ethylpyridin-2-yl)benzamide]
≥ 1000 nM: all assays above

CC#CC(=O)N1CCC[C@H]1c1nc(-c2ccc(C(=O)Nc3cc(C(F)(F)F)ccn3)cc2)c2c(C)nccn12 [Example 26, (S)-4-(3-(1-but-2-ynoylpyrrolidin-2-yl)-8-methylimidazo[1,5-a]pyrazin-1-yl)-N-(4-(trifluoromethyl)pyridin-2-yl)benzamide]
≥ 1000 nM: all assays above
